Molecular target: T1, PPARγ (Homo sapiens, UniProt P37231)
T1 sequence (P37231 1-505): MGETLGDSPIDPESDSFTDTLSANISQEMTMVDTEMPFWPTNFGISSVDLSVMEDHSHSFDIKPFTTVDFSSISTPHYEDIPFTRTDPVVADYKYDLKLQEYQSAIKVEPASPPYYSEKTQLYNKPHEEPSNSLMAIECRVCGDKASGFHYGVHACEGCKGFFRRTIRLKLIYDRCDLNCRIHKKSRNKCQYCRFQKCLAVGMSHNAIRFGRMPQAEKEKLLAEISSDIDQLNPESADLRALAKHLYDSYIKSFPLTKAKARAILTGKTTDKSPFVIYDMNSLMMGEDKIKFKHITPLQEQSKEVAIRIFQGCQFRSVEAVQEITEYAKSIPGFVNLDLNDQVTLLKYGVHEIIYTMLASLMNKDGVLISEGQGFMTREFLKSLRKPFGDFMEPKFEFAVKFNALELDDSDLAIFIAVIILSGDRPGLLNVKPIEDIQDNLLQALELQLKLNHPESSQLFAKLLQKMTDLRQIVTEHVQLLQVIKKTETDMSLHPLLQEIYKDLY
T1 sequence (P19793 1-462 partner): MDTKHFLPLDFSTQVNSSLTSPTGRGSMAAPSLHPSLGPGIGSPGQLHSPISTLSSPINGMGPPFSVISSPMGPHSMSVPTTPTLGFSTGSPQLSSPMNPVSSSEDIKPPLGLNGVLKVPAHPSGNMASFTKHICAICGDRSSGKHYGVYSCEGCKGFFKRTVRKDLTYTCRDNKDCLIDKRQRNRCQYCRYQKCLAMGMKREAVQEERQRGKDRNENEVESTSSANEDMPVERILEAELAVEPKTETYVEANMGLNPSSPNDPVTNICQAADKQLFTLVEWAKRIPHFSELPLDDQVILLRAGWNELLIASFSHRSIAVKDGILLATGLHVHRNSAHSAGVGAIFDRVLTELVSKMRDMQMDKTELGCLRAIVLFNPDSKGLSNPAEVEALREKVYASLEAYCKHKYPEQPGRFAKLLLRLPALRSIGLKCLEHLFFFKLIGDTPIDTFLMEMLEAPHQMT
Assay: PPARγ reporter functional assay (CTF)
Format: cell-based
Conditions: examined up to 10 μM; CV1 cells; luciferase
Description: Gal4 PPARα, Gal4 PPARδ, and PPARγ reporter functional assays are also used to monitor the selectivity of exemplified compounds. CV1 cells, which are derived from the renal tissue of an African green monkey, are transfected with various receptor and reporter plasmids using Fugene. For the Gal4 PPARα and PPARδ assays, a reporter plasmid containing five tandem copies of the yeast transcription protein Gal4 response element, cloned upstream of a firefly luciferase gene driven by the major late promoter of adenovirus, is transfected together with a Simian Virus 40 (SV40) driven plasmid constitutively expressing a hybrid protein containing the Gal4 DNA binding domain (DBD), and either the PPARα or PPARδ ligand binding. For the PPARγ assay, plasmids encoding PPARγ and RXRα, both driven by a cytomegalovirus (CMV) promoter are transfected together with a plasmid containing luciferase reporter cDNA driven by the TK promoter and a receptor response element (2×PPRE). Cells are transfected in T225 cm^2 cell culture flasks in DMEM media with 5% charcoal-stripped FBS. […] After 24 hours incubation with compounds, cells are lysed and luciferase activity is determined as a measure of receptor activation by luminescence. […] The maximum percent stimulation is determined versus maximum stimulation obtained with 10 μM of an appropriate PPAR agonist reference compound. […]

Question: How did the functional activation turn out when CC#C[C@@H](CC(=O)O)c1ccc(OCc2ccc(CN3CCC4(C=Cc5ccccc54)CC3)cc2)cc1 [Example 1, (3S)-3-(4-{[4-(1′H-Spiro[indene-1,4′-piperidin]-1′-ylmethyl)benzyl]oxy}phenyl)hex-4-ynoic acid] was run?
Answer: No functional activation
